Data published in ChEMBL document CHEMBL4020829, “Structure-Activity Relationships and Computational Investigations into the Development of Potent and Balanced Dual-Acting Butyrylcholinesterase Inhibitors and Human Cannabinoid Receptor 2 Ligands with Pro-Cognitive in Vivo Profiles” (J Med Chem, 2018).
Activity calls are given as the source filed them. No cut-off for these calls is given here.

Legend:
[1] = target: T1, Cannabinoid receptor 1 (Homo sapiens, UniProt P21554); assay: Displacement of [3H]-[…] from human CB1 receptor expressed in CHO cell membranes at 10 uM after 3 hrs by scintillation counting method relative to control
[2] = target: Acetylcholinesterase (Electrophorus electricus, UniProt O42275); assay: Inhibition of electric eel AChE using ATC iodide as substrate preincubated for 4.5 mins followed by substrate addition measured after 2.5 mins by Ellman's method
[3] = target: T2, Cannabinoid receptor 2 (Homo sapiens, UniProt P34972); assay: biochemical
Description: Displacement of [3H]-CP55950 from human CB2 receptor expressed in HEK cell membranes after 3 hrs by scintillation counting method

[4] = test system: U-266; assay: Cytotoxicity against human U266 cells assessed as decrease in cell viability after 72 hrs by MTT assay; type: cell-based; conditions: U-266, 72 h
[5] = target: T3, Cholinesterase (Homo sapiens, UniProt P06276)
[6] = target: T4, Acetylcholinesterase (Homo sapiens, UniProt P22303)
[7] = test system: Mus musculus; assay: Pro-cognitive activity in amyloid beta (25 to 35)-treated Swiss mouse assessed as increase in locomotion by measuring number of arms entered during session at 3 mg/kg, ip administered for 7 days measured on day 8 by Y-maze test; type: functional, organism-based
[8] = test system: Mus musculus; assay: Pro-cognitive activity in Swiss mouse assessed as prevention of amyloid beta (25 to 35)-induced increase in escape latency at 1 to 3 mg/kg, ip administered for 7 days measured on day 10 by passive avoidance test; type: functional, organism-based
[9] = target: T2, Cannabinoid receptor 2; assay: Agonist activity at CB2 receptor in human U266 cells assessed as decrease in AM630-induced STAT3 mRNA expression at 50 uM after 2 hrs by qRT-PCR method; type: cell-based
[10] = target: T2, Cannabinoid receptor 2; assay: Agonist activity at CB2 receptor in human U266 cells assessed as decrease in MIF mRNA expression at 50 uM after 2 hrs by qRT-PCR method; type: cell-based
[11] = target: T2, Cannabinoid receptor 2; assay: Agonist activity at CB2 receptor in human U266 cells assessed as decrease in AM630-induced cAMP accumulation at 50 uM after 2 hrs by ELISA; type: functional, cell-based
[12] = target: Cholinesterase (Equus caballus, UniProt P81908); assay: Inhibition of equine BChE using BTC iodide as substrate preincubated for 4.5 mins followed by substrate addition measured after 2.5 mins by Ellman's method
[13] = target: Acetylcholinesterase (Electrophorus electricus) (UniProt O42275); assay: Inhibition of electric eel AChE at 100 uM using ATC iodide as substrate preincubated for 4.5 mins followed by substrate addition measured after 2.5 mins by Ellman's method relative to control
[14] = target: T2, Cannabinoid receptor 2; assay: Agonist activity at CB2 receptor in human U266 cells assessed as decrease in cAMP accumulation at 50 uM after 2 hrs by ELISA; type: functional, cell-based
[15] = target: T4, Acetylcholinesterase; assay: Inhibition of human erythrocyte AChE at 100 uM using ATC iodide as substrate preincubated for 4.5 mins followed by substrate addition measured after 2.5 mins by Ellman's method relative to control
[16] = target: T2, Cannabinoid receptor 2; assay: Agonist activity at CB2 receptor in human U266 cells assessed as decrease in AM630-induced MIF mRNA expression at 50 uM after 2 hrs by qRT-PCR method; type: cell-based
[17] = target: T2, Cannabinoid receptor 2; assay: Agonist activity at CB2 receptor in human U266 cells assessed as decrease in STAT3 mRNA expression at 50 uM after 2 hrs by qRT-PCR method; type: cell-based
[18] = test system: Mus musculus; assay: Toxicity in Swiss mouse assessed as body weight gain per day at 0.3 to 3 mg/kg, ip administered for 7 days measured during compound dosing; type: organism-based; conditions: in vivo, 168 h
[19] = target: T3, Cholinesterase; assay: Inhibition of human BChE at 10 uM using BTC iodide as substrate preincubated for 4.5 mins followed by substrate addition measured after 2.5 mins by Ellman's method relative to control
[20] = target: Acetylcholinesterase (Electrophorus electricus) (UniProt O42275); assay: Inhibition of electric eel AChE at 10 uM using ATC iodide as substrate preincubated for 4.5 mins followed by substrate addition measured after 2.5 mins by Ellman's method relative to control
[21] = target: T4, Acetylcholinesterase; assay: Inhibition of human erythrocyte AChE at 10 uM using ATC iodide as substrate preincubated for 4.5 mins followed by substrate addition measured after 2.5 mins by Ellman's method relative to control
[22] = target: T2, Cannabinoid receptor 2; conditions: 10 uM
Description: Displacement of [3H]-CP55950 from human CB2 receptor expressed in HEK cell membranes at 10 uM after 3 hrs by scintillation counting method relative to control

[23] = target: T3, Cholinesterase; assay: Inhibition of human BChE at 100 uM using BTC iodide as substrate preincubated for 4.5 mins followed by substrate addition measured after 2.5 mins by Ellman's method relative to control
[24] = test system: Mus musculus; assay: Pro-cognitive activity in Swiss mouse assessed as prevention of amyloid beta (25 to 35)-induced step through latency deficit at 3 mg/kg, ip administered for 7 days measured on day 10 by passive avoidance test; type: functional, organism-based
[25] = target: T1, Cannabinoid receptor 1; assay: biochemical; type: cell-based
Description: Displacement of [3H]-CP55950 from human CB1 receptor expressed in CHO cell membranes after 3 hrs by scintillation counting method

[26] = target: T3, Cholinesterase; assay: Inhibition of human BChE at 25 uM using BTC iodide as substrate preincubated for 4.5 mins followed by substrate addition measured after 2.5 mins by Ellman's method relative to control
[27] = target: Acetylcholinesterase (Electrophorus electricus) (UniProt O42275); assay: Inhibition of electric eel AChE at 25 uM using ATC iodide as substrate preincubated for 4.5 mins followed by substrate addition measured after 2.5 mins by Ellman's method relative to control
[28] = test system: Mus musculus; assay: Toxicity in Swiss mouse assessed as body weight gain per day at 3 mg/kg, ip administered for 7 days measured during compound dosing; type: organism-based; conditions: in vivo, 168 h
[29] = test system: Mus musculus; assay: Toxicity in Swiss mouse assessed as body weight gain per day at 0.3 mg/kg, ip administered for 7 days measured during compound dosing; type: organism-based; conditions: in vivo, 168 h
[30] = test system: Mus musculus; assay: Toxicity in Swiss mouse assessed as prostration at 0.3 to 3 mg/kg, ip administered for 7 days measured during compound dosing; type: organism-based; conditions: in vivo, 168 h
[31] = test system: Mus musculus; assay: Toxicity in Swiss mouse assessed as abdominal pain at 0.3 to 3 mg/kg, ip administered for 7 days measured during compound dosing; type: organism-based; conditions: in vivo, 168 h
[32] = test system: Mus musculus; assay: Toxicity in Swiss mouse assessed as body weight loss at 0.3 to 3 mg/kg, ip administered for 7 days measured during compound dosing; type: organism-based; conditions: in vivo, 168 h
[33] = test system: Mus musculus; assay: Toxicity in Swiss mouse assessed as body weight gain per day at 1 mg/kg, ip administered for 7 days measured during compound dosing; type: organism-based; conditions: in vivo, 168 h
[34] = test system: Mus musculus; assay: Toxicity in Swiss mouse assessed as behavioral alteration at 0.3 to 3 mg/kg, ip administered for 7 days measured during compound dosing; type: organism-based; conditions: in vivo, 168 h
[35] = test system: Mus musculus; assay: Pro-cognitive activity in ip dosed Swiss mouse assessed as prevention of amyloid beta (25 to 35)-induced step through latency deficit administered for 7 days measured on day 10 by passive avoidance test; type: functional, organism-based
[36] = test system: Mus musculus; assay: Toxicity in Swiss mouse assessed as changes in fur aspects at 0.3 to 3 mg/kg, ip administered for 7 days measured during compound dosing; type: organism-based; conditions: in vivo, 168 h
[37] = target: T3, Cholinesterase; assay: Inhibition of human BChE at 50 uM using BTC iodide as substrate preincubated for 4.5 mins followed by substrate addition measured after 2.5 mins by Ellman's method relative to control
[38] = target: Acetylcholinesterase (Electrophorus electricus) (UniProt O42275); assay: Inhibition of electric eel AChE at 50 uM using ATC iodide as substrate preincubated for 4.5 mins followed by substrate addition measured after 2.5 mins by Ellman's method relative to control

T2 sequence (P34972 whole entry): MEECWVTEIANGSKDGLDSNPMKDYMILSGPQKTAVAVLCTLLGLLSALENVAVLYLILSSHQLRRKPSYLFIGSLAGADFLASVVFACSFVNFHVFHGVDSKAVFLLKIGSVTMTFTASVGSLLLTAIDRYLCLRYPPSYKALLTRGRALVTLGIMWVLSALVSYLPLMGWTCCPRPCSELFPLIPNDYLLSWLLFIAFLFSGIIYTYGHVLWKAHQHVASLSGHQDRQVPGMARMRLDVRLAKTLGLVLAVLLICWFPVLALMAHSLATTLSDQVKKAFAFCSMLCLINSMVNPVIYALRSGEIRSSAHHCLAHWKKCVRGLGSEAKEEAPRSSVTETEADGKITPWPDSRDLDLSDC
T4 sequence (P22303 whole entry): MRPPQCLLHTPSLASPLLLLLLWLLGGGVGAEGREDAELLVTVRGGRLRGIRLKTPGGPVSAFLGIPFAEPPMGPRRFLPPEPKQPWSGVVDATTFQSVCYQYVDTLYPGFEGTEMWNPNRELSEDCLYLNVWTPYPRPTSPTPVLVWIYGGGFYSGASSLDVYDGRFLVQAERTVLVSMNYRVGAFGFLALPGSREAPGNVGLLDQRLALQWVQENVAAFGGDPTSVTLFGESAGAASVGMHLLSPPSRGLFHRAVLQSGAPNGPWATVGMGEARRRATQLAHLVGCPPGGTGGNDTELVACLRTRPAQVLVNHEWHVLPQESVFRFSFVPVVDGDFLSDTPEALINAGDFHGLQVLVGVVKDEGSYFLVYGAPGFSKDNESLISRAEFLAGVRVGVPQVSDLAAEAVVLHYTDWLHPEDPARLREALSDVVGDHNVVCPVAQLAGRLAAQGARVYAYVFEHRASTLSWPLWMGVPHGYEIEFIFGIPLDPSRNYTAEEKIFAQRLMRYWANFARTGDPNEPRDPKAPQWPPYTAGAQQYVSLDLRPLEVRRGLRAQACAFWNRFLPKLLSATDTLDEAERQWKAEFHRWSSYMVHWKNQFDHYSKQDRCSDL
T3 sequence (P06276 whole entry): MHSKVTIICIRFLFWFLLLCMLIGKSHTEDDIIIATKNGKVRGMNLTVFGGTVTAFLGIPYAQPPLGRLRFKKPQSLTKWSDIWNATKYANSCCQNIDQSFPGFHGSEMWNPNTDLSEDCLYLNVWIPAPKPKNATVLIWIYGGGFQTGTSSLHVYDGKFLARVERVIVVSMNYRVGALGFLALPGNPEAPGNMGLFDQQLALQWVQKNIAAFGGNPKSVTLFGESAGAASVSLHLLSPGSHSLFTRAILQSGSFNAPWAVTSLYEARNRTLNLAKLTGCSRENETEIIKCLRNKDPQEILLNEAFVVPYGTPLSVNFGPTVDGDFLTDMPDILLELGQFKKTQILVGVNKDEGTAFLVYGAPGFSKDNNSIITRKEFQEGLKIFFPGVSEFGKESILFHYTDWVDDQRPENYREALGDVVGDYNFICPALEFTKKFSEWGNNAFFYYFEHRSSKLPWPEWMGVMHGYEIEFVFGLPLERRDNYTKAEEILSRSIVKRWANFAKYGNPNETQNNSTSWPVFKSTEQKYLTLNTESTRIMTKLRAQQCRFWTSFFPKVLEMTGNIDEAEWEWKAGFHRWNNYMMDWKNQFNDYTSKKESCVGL
Acetylcholinesterase (Electrophorus electricus), sequence (O42275 24-633 limits assumed): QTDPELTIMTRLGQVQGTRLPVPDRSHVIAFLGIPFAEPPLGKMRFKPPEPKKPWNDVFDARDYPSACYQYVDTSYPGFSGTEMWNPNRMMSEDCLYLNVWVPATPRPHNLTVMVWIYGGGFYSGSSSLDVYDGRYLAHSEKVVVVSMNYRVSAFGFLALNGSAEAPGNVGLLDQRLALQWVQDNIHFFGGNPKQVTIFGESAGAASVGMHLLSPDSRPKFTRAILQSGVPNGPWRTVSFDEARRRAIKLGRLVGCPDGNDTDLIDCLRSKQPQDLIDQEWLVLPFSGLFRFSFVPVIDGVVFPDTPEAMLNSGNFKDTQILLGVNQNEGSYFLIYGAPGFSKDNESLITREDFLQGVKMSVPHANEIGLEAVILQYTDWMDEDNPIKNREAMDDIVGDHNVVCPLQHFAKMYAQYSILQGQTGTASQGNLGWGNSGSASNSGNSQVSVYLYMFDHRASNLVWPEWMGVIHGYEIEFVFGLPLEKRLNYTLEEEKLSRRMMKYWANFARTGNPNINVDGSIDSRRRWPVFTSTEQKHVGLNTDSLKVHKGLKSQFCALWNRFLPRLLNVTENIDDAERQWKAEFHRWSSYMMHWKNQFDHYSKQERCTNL
Cholinesterase (Equus caballus, UniProt P81908), sequence (P81908 whole entry): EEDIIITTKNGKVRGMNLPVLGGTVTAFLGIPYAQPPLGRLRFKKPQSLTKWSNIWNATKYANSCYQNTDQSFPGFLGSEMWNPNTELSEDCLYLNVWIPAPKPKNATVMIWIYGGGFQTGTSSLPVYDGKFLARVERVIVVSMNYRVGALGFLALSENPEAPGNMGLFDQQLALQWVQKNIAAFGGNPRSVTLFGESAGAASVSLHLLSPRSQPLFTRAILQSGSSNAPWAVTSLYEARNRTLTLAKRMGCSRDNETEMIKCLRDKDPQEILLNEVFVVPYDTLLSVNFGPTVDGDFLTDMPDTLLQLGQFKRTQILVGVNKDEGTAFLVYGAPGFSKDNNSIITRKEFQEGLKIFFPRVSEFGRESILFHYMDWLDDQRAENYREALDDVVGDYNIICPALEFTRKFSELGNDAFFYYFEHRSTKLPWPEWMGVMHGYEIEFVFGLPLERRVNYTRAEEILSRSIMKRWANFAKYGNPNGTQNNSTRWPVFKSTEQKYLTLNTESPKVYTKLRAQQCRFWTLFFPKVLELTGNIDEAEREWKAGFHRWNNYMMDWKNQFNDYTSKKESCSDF
T1 sequence (P21554 whole entry): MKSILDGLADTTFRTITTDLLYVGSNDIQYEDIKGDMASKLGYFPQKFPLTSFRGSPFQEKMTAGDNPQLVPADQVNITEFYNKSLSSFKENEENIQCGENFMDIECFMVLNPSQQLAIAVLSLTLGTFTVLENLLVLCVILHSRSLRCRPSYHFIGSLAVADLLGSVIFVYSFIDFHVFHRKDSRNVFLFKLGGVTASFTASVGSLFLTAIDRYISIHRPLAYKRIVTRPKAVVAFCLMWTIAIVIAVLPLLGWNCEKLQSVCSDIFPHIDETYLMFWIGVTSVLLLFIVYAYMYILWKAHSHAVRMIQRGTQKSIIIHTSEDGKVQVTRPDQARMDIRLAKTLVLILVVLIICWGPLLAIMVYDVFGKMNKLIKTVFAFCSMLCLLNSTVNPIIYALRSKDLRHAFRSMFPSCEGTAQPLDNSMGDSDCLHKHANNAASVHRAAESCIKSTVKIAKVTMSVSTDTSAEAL
Acetylcholinesterase (Electrophorus electricus, UniProt O42275), sequence (O42275 whole entry): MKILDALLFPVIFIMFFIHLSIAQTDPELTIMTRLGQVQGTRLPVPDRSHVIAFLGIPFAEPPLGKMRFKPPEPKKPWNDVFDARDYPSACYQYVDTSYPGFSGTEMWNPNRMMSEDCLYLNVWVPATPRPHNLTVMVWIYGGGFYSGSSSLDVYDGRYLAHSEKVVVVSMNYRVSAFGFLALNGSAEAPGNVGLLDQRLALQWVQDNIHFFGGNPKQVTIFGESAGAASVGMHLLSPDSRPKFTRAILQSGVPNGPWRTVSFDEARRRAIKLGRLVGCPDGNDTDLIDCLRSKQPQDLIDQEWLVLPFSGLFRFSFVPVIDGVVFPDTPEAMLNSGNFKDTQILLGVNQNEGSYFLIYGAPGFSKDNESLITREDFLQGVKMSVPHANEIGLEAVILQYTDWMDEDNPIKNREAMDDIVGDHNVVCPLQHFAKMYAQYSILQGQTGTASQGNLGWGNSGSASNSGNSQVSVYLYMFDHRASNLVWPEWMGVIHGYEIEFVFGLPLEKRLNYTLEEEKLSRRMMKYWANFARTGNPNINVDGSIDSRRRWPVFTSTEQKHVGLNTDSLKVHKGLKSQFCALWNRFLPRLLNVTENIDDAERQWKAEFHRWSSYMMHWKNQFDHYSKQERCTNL

## CCOc1ccc(Cc2nc3cc(C(=O)N(CC)CC)ccc3n2CCCCN2CCCCC2)cc1
[1]
  inhibition: 2%
[2]
  IC50: 20.5 µM
[3]
  IC50: 5.01 µM
  Ki: 4.8 µM
[4]
  IC50: > 40 µM
[5]
  IC50: 2.7 µM
[6]
  IC50: 60.1 µM

## CCOc1ccc(Cc2nc3cc(C(=O)N(CC)CC)ccc3n2CCCCCCN2CCCCC2)cc1
[1]
  inhibition: 4%
[2]
  IC50: 11.9 µM
[3]
  IC50: 1.26 µM
  Ki: 1 µM
[5]
  IC50: 8.2 µM
[6]
  IC50: 20 µM

## CCOc1ccc(Cc2nc3cc(C(=O)N(CC)CC)ccc3n2CCC(C)C)cc1
[1]
  inhibition: 24%
[7]
  Activity: Active
[8]
  Activity: Active
[9]
  Activity: Active
[10]
  Activity: Active
[11]
  Activity: Active
[12]
  IC50: 9.7 µM
[13]
  inhibition: 28%
[14]
  Activity: Active
[15]
  inhibition: 6%
[16]
  Activity: Active
[17]
  Activity: Active
[18]
  Activity: 0.3 g
[19]
  inhibition: 2%

## CCCCCCNC(=O)c1ccc2c(c1)nc(Cc1ccc(OCC)cc1)n2CCC(C)C
[1]
  inhibition: 39%
[3]
  IC50: 2 µM
  Ki: 1.9 µM
[20]
  inhibition: 8%
[4]
  IC50: > 40 µM
[5]
  IC50: 5.2 µM
[21]
  inhibition: 6%

## Cc1c(C(=O)NN2CCCCC2)nn(-c2ccc(Cl)cc2Cl)c1-c1ccc(Cl)cc1
[22]
  inhibition: 4%

## CCOc1ccc(Cc2nc3cc(N)ccc3n2CCC(C)C)cc1
[1]
  inhibition: 27%
[3]
  IC50: 20 µM
  Ki: 21 µM
[23]
  inhibition: 39%
[13]
  inhibition: 15%

## CCOc1ccc(Nc2nc3cc(C(=O)N(CC)CC)ccc3n2CCC(C)C)cc1
[1]
  inhibition: 13%
[7]
  Activity: Active
[8]
  Activity: Active
[9]
  Activity: Active
[10]
  Activity: Active
[3]
  IC50: 2 µM
  Ki: 1.9 µM
[11]
  Activity: Active
[12]
  IC50: 0.7 µM
[24]
  Activity: Active
[4]
  IC50: > 40 µM
[13]
  inhibition: 4%
[14]
  Activity: Active
[21]
  inhibition: 13%
[16]
  Activity: Active
[17]
  Activity: Active
[18]
  Activity: 0.3 g
[19]
  inhibition: 3%

## CCOc1ccc(Cc2nc3cc(C(=O)N4CCCCC4)ccc3n2CCC(C)C)cc1
[3]
  IC50: 0.398 µM
  Ki: 0.384 µM
[20]
  inhibition: 8%
[25]
  IC50: 15.8 µM
  Ki: 17 µM
[5]
  IC50: 5.7 µM
[21]
  inhibition: 2%

## CCN(CC)C(=O)c1ccc2c(c1)nc(Nc1ccc(Oc3ccccc3)cc1)n2CCN1CCCCC1
[1]
  inhibition: 37%
[3]
  IC50: 7.94 µM
  Ki: 8.9 µM
[26]
  inhibition: 4%
[27]
  inhibition: 3%

## CCOc1ccc(Nc2nc3cc(C(=O)N(CC)CC)ccc3n2CCN2CCCCC2)cc1
[1]
  inhibition: 17%
[3]
  IC50: 12.6 µM
  Ki: 10.4 µM
[5]
  IC50: 53.4 µM
[13]
  inhibition: 18%
[21]
  inhibition: 3%

## CCOc1ccc(Cc2nc3cc(C(=O)Nc4ccccc4)ccc3n2CCC(C)C)cc1
[1]
  inhibition: 18%
[3]
  IC50: 15.8 µM
  Ki: 14.4 µM
[20]
  inhibition: 2%
[4]
  IC50: > 40 µM
[5]
  IC50: 1.2 µM
[21]
  inhibition: 5%

## CCOc1ccc(Cc2nc3cc(C(=O)NC45CC6CC(CC(C6)C4)C5)ccc3n2CCC(C)C)cc1
[1]
  inhibition: 31%
[3]
  IC50: 5.01 µM
  Ki: 4.7 µM
[20]
  inhibition: 5%
[4]
  IC50: > 40 µM
[19]
  inhibition: 1%

## CCN(CC)C(=O)c1ccc2c(c1)nc(Nc1ccc(Oc3ccccc3)cc1)n2CCC(C)C
[1]
  inhibition: 45%
[9]
  Activity: Active
[10]
  Activity: Active
[3]
  IC50: 0.501 µM
  Ki: 0.426 µM
[11]
  Activity: Active
[12]
  IC50: 3.7 µM
[4]
  IC50: > 40 µM
[13]
  inhibition: 2%
[14]
  Activity: Active
[21]
  inhibition: 3%
[16]
  Activity: Active
[17]
  Activity: Active
[19]
  inhibition: 0%

## CCOc1ccc(Cc2nc3cc(C(=O)NCCC(C)C)ccc3n2CCC(C)C)cc1
[1]
  inhibition: 37%
[28]
  Activity: 0 g
[29]
  Activity: 0.2 g
[8]
  Activity: Active
[30]
  Activity: Non-Toxic
[31]
  Activity: Non-Toxic
[32]
  Activity: Non-Toxic
[33]
  Activity: 0.1 g
[4]
  IC50: > 40 µM
[34]
  Activity: Non-Toxic
[35]
  Activity: Dose-dependent effect
[21]
  inhibition: 11%
[36]
  Activity: Non-Toxic
[27]
  inhibition: 3%

## CCOc1ccc(CNc2nc3cc(C(=O)N(CC)CC)ccc3n2CCC(C)C)cc1
[1]
  inhibition: 21%
[3]
  IC50: 0.398 µM
  Ki: 0.353 µM
[37]
  inhibition: 4%
[38]
  inhibition: 7%

## CCOc1ccc(Cc2nc3cc(NC(=O)c4ccccc4)ccc3n2CCC(C)C)cc1
[1]
  inhibition: 36%
[3]
  IC50: 3.98 µM
  Ki: 4.3 µM
[20]
  inhibition: 2%
[19]
  inhibition: 25%
